pIC50: −log10 of the molar value. Like-named read-outs stand apart in the source and are kept apart here.
Assays:
rabbit lung ACE = molecular target: T1, rabbit lung ACE (Oryctolagus cuniculus, UniProt P12822); assay: ACE inhibition assay (hippuric acid by HPLC); type: biochemical; details: for IC50: read-out: IC50, ACE (converted)
T1 construct: purchased Sigma-Aldrich (St. Louis, MO, USA); host or cells: rabbit lung
T1 sequence (P12822 34-1310): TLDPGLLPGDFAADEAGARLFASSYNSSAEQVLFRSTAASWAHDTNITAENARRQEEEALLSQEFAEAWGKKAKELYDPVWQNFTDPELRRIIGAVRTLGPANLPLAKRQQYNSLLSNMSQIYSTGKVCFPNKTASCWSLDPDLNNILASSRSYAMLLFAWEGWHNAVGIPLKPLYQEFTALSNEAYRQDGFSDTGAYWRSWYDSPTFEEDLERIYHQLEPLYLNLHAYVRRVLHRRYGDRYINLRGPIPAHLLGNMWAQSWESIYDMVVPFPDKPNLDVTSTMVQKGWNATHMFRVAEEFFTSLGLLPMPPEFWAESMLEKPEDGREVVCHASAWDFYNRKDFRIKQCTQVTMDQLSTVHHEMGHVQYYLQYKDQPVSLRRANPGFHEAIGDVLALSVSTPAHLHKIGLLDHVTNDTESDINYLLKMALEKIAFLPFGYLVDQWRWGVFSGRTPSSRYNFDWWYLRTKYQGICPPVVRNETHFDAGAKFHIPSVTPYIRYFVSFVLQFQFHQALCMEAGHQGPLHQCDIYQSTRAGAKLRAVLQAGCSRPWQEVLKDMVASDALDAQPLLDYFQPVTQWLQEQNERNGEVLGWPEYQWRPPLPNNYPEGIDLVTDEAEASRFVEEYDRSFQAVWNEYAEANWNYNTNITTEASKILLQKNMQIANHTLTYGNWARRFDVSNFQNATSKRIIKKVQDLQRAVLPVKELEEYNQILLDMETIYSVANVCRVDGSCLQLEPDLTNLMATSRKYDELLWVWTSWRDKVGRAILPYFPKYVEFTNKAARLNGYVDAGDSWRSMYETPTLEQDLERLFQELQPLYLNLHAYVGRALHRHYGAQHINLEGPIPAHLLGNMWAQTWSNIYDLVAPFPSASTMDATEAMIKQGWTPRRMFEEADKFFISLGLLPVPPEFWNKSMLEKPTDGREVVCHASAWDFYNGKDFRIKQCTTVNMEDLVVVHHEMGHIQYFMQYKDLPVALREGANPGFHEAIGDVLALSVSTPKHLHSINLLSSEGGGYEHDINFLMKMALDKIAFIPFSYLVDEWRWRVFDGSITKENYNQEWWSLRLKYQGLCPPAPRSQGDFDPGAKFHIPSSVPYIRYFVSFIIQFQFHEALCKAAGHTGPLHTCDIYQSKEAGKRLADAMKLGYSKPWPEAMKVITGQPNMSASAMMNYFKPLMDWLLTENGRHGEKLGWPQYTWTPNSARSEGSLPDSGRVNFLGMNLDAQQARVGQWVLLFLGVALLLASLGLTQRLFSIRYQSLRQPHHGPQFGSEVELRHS

[1] = molecular target: T2, porcine pancreatic α-amylase (Sus scrofa, UniProt P00690); assay: α-amylase inhibition assay; type: biochemical; details: for inhibition ability on α-amylase: dosage 0–2.5 mg/mL; for inhibition of α-amylase activity: 0.5–2 mg/mL
T2 construct: purchased Sigma-Aldrich (St. Louis, MO, USA); host or cells: porcine pancreas
T2 sequence (P00690 16-511): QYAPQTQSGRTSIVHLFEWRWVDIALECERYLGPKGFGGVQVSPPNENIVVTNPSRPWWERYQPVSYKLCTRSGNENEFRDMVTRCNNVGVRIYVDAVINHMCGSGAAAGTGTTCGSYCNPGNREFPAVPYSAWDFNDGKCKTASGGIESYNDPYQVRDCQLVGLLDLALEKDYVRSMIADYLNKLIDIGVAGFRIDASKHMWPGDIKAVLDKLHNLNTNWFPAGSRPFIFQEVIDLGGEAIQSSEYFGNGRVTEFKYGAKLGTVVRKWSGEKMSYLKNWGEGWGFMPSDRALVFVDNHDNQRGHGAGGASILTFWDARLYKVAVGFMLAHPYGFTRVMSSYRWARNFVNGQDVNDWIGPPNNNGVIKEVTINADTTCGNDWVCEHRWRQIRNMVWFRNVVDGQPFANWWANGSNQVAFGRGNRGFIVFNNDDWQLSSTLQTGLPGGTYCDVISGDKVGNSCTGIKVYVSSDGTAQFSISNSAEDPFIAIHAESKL

pancreatic lipase = molecular target: T3, pancreatic lipase (Homo sapiens, UniProt P16233); assay: lipase inhibition assay; type: biochemical; details: for inhibition of pancreatic lipase activity: 0.5–2 mg/mL
T3 sequence (P16233 17-465): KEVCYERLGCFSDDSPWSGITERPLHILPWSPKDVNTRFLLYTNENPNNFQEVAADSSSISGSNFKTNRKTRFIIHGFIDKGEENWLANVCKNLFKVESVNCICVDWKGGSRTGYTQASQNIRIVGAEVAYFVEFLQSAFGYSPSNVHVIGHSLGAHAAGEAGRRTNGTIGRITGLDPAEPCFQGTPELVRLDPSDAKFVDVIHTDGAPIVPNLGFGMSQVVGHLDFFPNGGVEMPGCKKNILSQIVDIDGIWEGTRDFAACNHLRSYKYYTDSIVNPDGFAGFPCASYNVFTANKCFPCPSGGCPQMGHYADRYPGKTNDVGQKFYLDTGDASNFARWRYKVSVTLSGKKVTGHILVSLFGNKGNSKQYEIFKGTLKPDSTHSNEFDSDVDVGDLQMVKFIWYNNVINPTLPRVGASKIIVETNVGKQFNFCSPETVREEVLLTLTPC

[2] = scavenging ability on DPPH radicals; details: 0–250 μg/mL
Description: The scavenging ability of each extract on DPPH radicals was determined based on the method by Shimada et al.. Each extract was prepared in methanol at 0–1000 μg extract/mL, and 4 mL was mixed with 1 mL of methanolic solution containing DPPH radicals to a final concentration of 0.2 mM DPPH. After the mixture was shaken vigorously, it was left to stand in the dark for 30 min, and then the absorbance of the mixture was measured at 517 nm against a blank. […] Ascorbic acid, BHA, α-tocopherol, acetoxyvalerenic acid, and valerenic acid were compared. Each analysis was carried out in quadruplicate.

α-glucosidase = α-glucosidase inhibition assay; type: biochemical

| IC50 (rabbit lung ACE) [mM] | Structure (SMILES) | inhibition ability on α-amylase [1] | pIC50 (pancreatic lipase) | IC50, α-Glucosidase (α-glucosidase) | also measured |
| --- | --- | --- | --- | --- | --- |
| 13.6 | O=C(/C=C/c1ccc(O)c(O)c1)O[C@@H]1C[C@](O)(C(=O)O)C[C@@H](O)[C@H]1O [Chlorogenic acid] | 0–89.52% | 2.50 | – | IC50 ([1]; read-out: IC50, α-Amylase (converted)): 5.06 mM |
| – | CC1=C2[C@H](/C=C(\C)C(=O)O)CC[C@@H](C)[C@H]2CC1 [Valerenic acid] | – | – | 0.617 ± 0.028F mg/mL | ability to scavenge DPPH radicals [2]: not able to scavenge the DPPH radicals; IC50, ACE (rabbit lung ACE): 0.225 ± 0.023D mg/mL; inhibition of α-amylase activity [1]: could not effectively inhibit; inhibition of pancreatic lipase activity (pancreatic lipase): Neither |
| – | O=C(O)c1cc(O)c(O)c(O)c1 [Gallic acid, gallic acid] | 0–95.22% | 2.44 | 2.164 ± 0.026C mg/mL | pIC50 (rabbit lung ACE): 1.91; pIC50 [1]: 2.13 |
| 0.522 | O=C(O)/C=C/c1ccc(O)c(O)c1 [Caffeic acid, caffeic acid] | – | 2.39 | 1.289 ± 0.024E mg/mL | – |
| – | CC(=O)O[C@@H]1CC(C)=C2[C@H]1[C@H](C)CC[C@H]2/C=C(\C)C(=O)O [Acetoxyvalerenic acid, acetoxyvalerenic acid] | – | – | 1.827 ± 0.005D mg/mL | ability to scavenge DPPH radicals [2]: not able to scavenge the DPPH radicals; inhibitory ability on ACE (rabbit lung ACE; 2 mg/mL): 15%; inhibition of α-amylase activity [1]: could not effectively inhibit; inhibition of pancreatic lipase activity (pancreatic lipase): Neither |
| – | C[C@H]1O[C@H](O[C@H]2[C@H](O)[C@@H](O)[C@@H](O[C@H]3[C@H](O)[C@@H](O)C(O)O[C@@H]3CO)O[C@@H]2CO)[C@H](O)[C@@H](O)[C@@H]1N[C@H]1C=C(CO)[C@@H](O)[C@H](O)[C@H]1O (stereo partly drawn) [Acarbose, acarbose, reference compound] | – | – | – | inhibitory ability of α-amylase ([1]; 5–25 μg/mL): 47–88% |

| Structure (SMILES) | IC50 (rabbit lung ACE) [mM] | inhibition ability on α-amylase [1] | pIC50 (pancreatic lipase) | IC50, α-Glucosidase (α-glucosidase) | also measured |
| --- | --- | --- | --- | --- | --- |
| O=C(O)c1ccc(O)c(O)c1 [Protocatechuic acid, protocatechuic acid] | 16 | 0–88.03% | 2.36 | 3.721 ± 0.042B mg/mL | – |

Source: paper PMC9914926, “Bioactive Compounds of Underground Valerian Extracts and Their Effect on Inhibiting Metabolic Syndrome-Related Enzymes Activities” (Foods, 2023)
